Measurements published in the supplement of paper PMC10307832.

Legend:
Assay in all cases: relative viability (nuclei count vs DMSO), 5 days (fraction); higher = more cells survive
Mirin + Phenformin = compound: N=C1NC(=O)/C(=C/c2ccc(O)cc2)S1 [Mirin] + N=C(N)NC(=N)NCCc1ccccc1 [Phenformin] (partner 250 µM)
In short: (§1)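 Relative viability is defined as nuclei in treated wells over nuclei in vehicle wells. Duplicate plates were run and medians reported. Lung cancer cell lines in 1536-well plates were dosed by pin tool one day after seeding, with one drug or with a fixed anchor-drug dose plus five library-drug doses (not always all listed) in √10 steps, and nuclei were counted after 5 days.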

[1] = compound: CCC1=CN=CN=C1N2CCN(CC2)CC3=NC4=C(N3)C=C(C=C4)C(F)(F)F + CC(C)C[C@H](NC(=O)[C@H](Cc1ccccc1)NC(=O)c1cnccn1)B(O)O [Bortezomib] (partner 0.002 µM)
In short: as §1

[2] = compound: CCC1=CN=CN=C1N2CCN(CC2)CC3=NC4=C(N3)C=C(C=C4)C(F)(F)F + CC(=O)c1c(C)c2cnc(Nc3ccc(N4CCNCC4)cn3)nc2n(C2CCCC2)c1=O [Palbociclib] (partner 0.5 µM)
In short: as §1

[3] = compound: CCC1=CN=CN=C1N2CCN(CC2)CC3=NC4=C(N3)C=C(C=C4)C(F)(F)F + Cc1nc(Nc2ncc(C(=O)Nc3c(C)cccc3Cl)s2)cc(N2CCN(CCO)CC2)n1 [Dasatinib] (partner 0.075 µM)
In short: as §1

UMC-11
relative viability (Mirin + Phenformin; first compound 0.25 µM): 0.351 | relative viability (Mirin + Phenformin; first compound 0.7906 µM): 0.272 | relative viability (Mirin + Phenformin; first compound 2.5 µM): 0.334 | relative viability (Mirin + Phenformin; first compound 7.906 µM): 0.32 | relative viability (Mirin + Phenformin; first compound 25 µM): 0.236 | relative viability ([1]; first compound 0.04 µM): 0.703 | relative viability ([1]; first compound 0.1265 µM): 0.672 | relative viability ([1]; first compound 0.4 µM): 0.554 | relative viability ([1]; first compound 1.265 µM): 0.701 | relative viability ([1]; first compound 4 µM): 0.707 | relative viability ([2]; first compound 0.04 µM): 0.331 | relative viability ([2]; first compound 0.1265 µM): 0.315 | relative viability ([2]; first compound 0.4 µM): 0.306 | relative viability ([2]; first compound 1.265 µM): 0.221 | relative viability ([2]; first compound 4 µM): 0.257 | relative viability ([3]; first compound 0.04 µM): 0.531 | relative viability ([3]; first compound 0.1265 µM): 0.436 | relative viability ([3]; first compound 0.4 µM): 0.42 | relative viability ([3]; first compound 1.265 µM): 0.398 | relative viability ([3]; first compound 4 µM): 0.492
